Data as given in US9580426B2, “Compounds that expand hematopoietic stem cells” (Novartis AG, priority 2008, dated 2017).

system: Primary adult CD34+ human hematopoietic stem cells (HSCs); experiment: % CD34+ assay: HSC expansion screen, dose response; type: cell-based; settings: Homo sapiens, Hematopoietic stem cell; dose response 1 nM to 10 μM; total number and/or percent of CD34+ cells
Method: Primary adult CD34^+ human hematopoietic stem cells (HSCs) are cultured and screened to identify compounds of the invention that facilitate HSC expansion. The cells are analyzed for the presence of the desired phenotype (CD34 expression). Compounds of the invention promote HSC expansion in a dose dependent manner.
Culture Medium: StemSpan SFEM medium is serum-free medium (StemCell Technologies, Vancouver, BC) supplemented with the following human recombinant cytokines: thrombopoietin, interleukin-6, Flt-3 ligand, and stem cell factor (all from R&D Systems, Minneapolis, Minn.), each at a final concentration of 50 ng/mL, with vehicle (DMSO) or a compound of the invention.
Human Cell Culture: Fresh human leukophoresed G-CSF mobilized peripheral blood from normal donors, CD34^+ cells from adult bone marrow and cryopreserved human cord blood CD34^+ cells are purchased from AllCells (Berkeley, Calif.). Human CD34^+ cells are enriched from leukophoresed G-CSF mobilized peripheral blood using magnetic cell sorting (MACS, Direct CD34 Progenitor Cell Isolation Kit, Miltenyi Biotec, Bergisch Gladbach, Germany) and cryopreserved. CD34^+ cell purity, checked by flow Cytometry, is higher than 90%. After thawing, the cell viability tested by trypan blue exclusion is higher than 70%. The thawed cells are centrifuged and resuspended with StemSpan medium before being aliquoted for immediate culture. Cells are plated at 10^4 cells/mL in a 384 well plate (Greiner Bio-One, Monroe, N.C.) with 50 μL of medium per well for 7 days. Every 7 days the cells are transferred to larger well plates and fresh medium is added to keep the cell density between 10^4 and 5×10^5 cells/mL. Cells were cultured at 37° C. in 5% CO2. For transplantation, cells were cultured in 75 cm^2 flasks before the cells were transplanted into mice. At a concentration of 1 micromolar, 4-(2-(2-(benzo[b]thiophen-3-yl)-9-isopropyl-9H-purin-6-ylamino)ethyl)phenol (compound 1, table 1; example 1), 4-(2-(2-(benzo[b]thiophen-3-yl)-9-sec-butyl-9H-purin-6-ylamino)ethyl)phenol (compound 2, table 1), and N-(2-(1H-indol-3-yl)ethyl)-2-(benzo[b]thiophen-3-yl)-9-isopropyl-9H-purin-6-amine (compound 9, table 1) each gives rise to a greater than 10-fold increase in the number of CD34^+ CD45RA^− cells derived from 1000 mPB CD34^+ HSCs after 21 days compared to vehicle. Compounds of the invention were assayed in a dose response format (1 nM to 10 μM) to determine the effective concentration that produced the desired effect in 50% of the cells (EC50).

Row | EC50 [nM] | SMILES
1 | 8 | C[C@H](CO)n1cnc2c(NCCc3c[nH]c4ccccc34)nc(-c3cncc(F)c3)nc21 [Example 157R, (R)-2-(6-(2-(1H-indol-3-yl)ethylamino)-2-(5-fluoropyridin-3-yl)-9H-purin-9-yl)propan-1-ol]
2 | 24 | Cc1cccc2c(CCNc3nc(-c4cncc(F)c4)nc4c3ncn4C(C)C)c[nH]c12 [Example 185]
3 | 10 | Cc1cncc(-c2nc(NCCc3c[nH]c4ccccc34)c3ncn(C(C)C)c3n2)c1 [Example 183]
4 | 1400 | CC(C)n1cnc2c(NCCc3ccc(O)cc3)nc(-c3cccn3C)nc21 [Example 119]
5 | 1100 | CCN(CC)CCOc1ccc2c(CCNc3nc(-c4cncc(F)c4)nc4c3ncn4C(C)C)c[nH]c2c1 [Example 176]
6 | 240 | CC(C)n1cnc2c(NCCc3ccc(O)c(Cl)c3)nc(-c3cccnc3)nc21 [Example 146]
7 | 130 | CCc1nccn1-c1nc(NCCc2ccc(O)cc2)c2ncn(C(C)C)c2n1 [Example 180]
8 | 220 | Oc1ccc(CCNc2nc(-c3csc4ccccc34)nc3c2ncn3[C@@H]2CCOC2)cc1 [Example 153, (R)-4-(2-(2-(benzo[b]thiophen-3-yl)-9-(tetrahydrofuran-3-yl)-9H-purin-6-ylamino)ethyl)phenol]
9 | 180 | N#Cc1cncc(-c2nc(NCCc3ccc(O)cc3)c3ncn(C4COC4)c3n2)c1 [Example 133]
10 | 290 | CC(C)n1cnc2c(NCC(O)c3ccc(O)cc3)nc(-c3cncc(F)c3)nc21 (stereo not shown) [Example 167]
11 | 1 | CCC(C)n1cnc2c(NCCc3c[nH]c4ccccc34)nc(-c3cncc(C#N)c3)nc21 (stereo not shown) [Example 130]
12 | 3 | CC[C@H](C)n1cnc2c(NCCc3c[nH]c4ccccc34)nc(-c3cncc(C)c3)nc21 [Example 131S]
13 | 5 | Cc1[nH]c2ccccc2c1CCNc1nc(-c2cncc(F)c2)nc2c1ncn2C(C)C [Example 190]
14 | 420 | CC(C)n1cnc2c(NCCc3c[nH]c4ncccc34)nc(-c3cncc(F)c3)nc21 [Example 175]
15 | 44 | COc1ccc2c(CCNc3nc(-c4cncc(F)c4)nc4c3ncn4C(C)C)c[nH]c2c1 [Example 169]
16 | 160 | CC(C)n1ccc2c(NCCc3ccc(O)cc3)nc(-c3cncc(F)c3)nc21 [Example 141, 4-(2-(2-(5-Fluoropyridin-3-yl)-7-isopropyl-7H-pyrrolo[2,3-d]pyrimidin-4-ylamino)ethyl)phenol]
17 | 4 | CCC(C)n1cnc2c(NCCc3c[nH]c4ccccc34)nc(-c3cncc(C)c3)nc21 (stereo not shown) [Example 131]
18 | 92 | CC(C)n1cnc2c(NCCc3ccc(O)cc3F)nc(-c3cccnc3)nc21 [Example 147]
19 | 2200 | CC(C)n1cnc2c(NCCc3ccc(O)nc3)nc(-c3cncc(F)c3)nc21 [Example 174]
20 | 3 | C[C@@H](CO)n1cnc2c(NCCc3c[nH]c4ccccc34)nc(-c3cncc(F)c3)nc21 [Example 157S, (S)-2-(6-(2-(1H-indol-3-yl)ethylamino)-2-(5-fluoropyridin-3-yl)-9H-purin-9-yl)propan-1-ol]
21 | 5000 | Cc1cc(CCNc2nc(-c3cccnc3)nc3c2ncn3C(C)C)n[nH]1 [Example 126]
22 | 120 | CC(C)n1cnc2c(NCCc3ccc(O)cc3)nc(-c3cncc(C(F)(F)F)c3)nc21 [Example 129]
23 | 2100 | CC(C)n1cnc2c(NCCc3c[nH]c4ccc(OC(=O)CCCCCNC(=O)CCCC[C@@H]5SC[C@@H]6NC(=O)N[C@@H]65)cc34)nc(-c3csc4ccccc34)nc21 [Example 210, 3-(2-(2-(benzo[b]thiophen-3-yl)-9-isopropyl-9H-purin-6-ylamino)ethyl)-1H-indol-5-yl 6-(5-((3aS,4S,6aR)-2-oxohexahydro-1H-thieno[3,4-d]imidazol-4-yl)pentanamido)hexanoate]
24 | 590 | CC(C)n1cnc2c(NCCc3ccc(O)cc3)nc(-n3cnc4cccnc43)nc21 [Example 159]
25 | 2 | CC[C@H](C)n1cnc2c(NCCc3c[nH]c4ccccc34)nc(-c3cncc(F)c3)nc21 [Example 132S]
26 | 5100 | CC(C)n1cnc2c(NCCc3c[nH]c4cc(O)ccc34)nc(-c3cncc(F)c3)nc21 [Example 182]
27 | 1 | Cc1cc(CCNc2nc(-c3cncc(F)c3)nc3c2ncn3C(C)CO)ccc1O (stereo not shown) [Example 200]
28 | 400 | Cc1cc(O)ccc1CCNc1nc(-c2cccnc2)nc2c1ncn2C(C)C [Example 138]
29 | 3 | CC(C)n1cnc2c(NCCc3c[nH]c4cccc(F)c34)nc(-c3cncc(F)c3)nc21 [Example 195]
30 | 6 | CC(C)n1cnc2c(NCCc3c[nH]c4ccccc34)nc(-c3cncc(F)c3)nc21 [Example 170]

More lines, now with the values behind:

Row | SMILES | EC50 [nM]
31 | CC(C)n1cnc2c(NCCc3c[nH]c4ccccc34)nc(-c3cccnc3)nc21 [Example 91] | 29
32 | CC(Cc1ccc(O)cc1)Nc1nc(-c2cccnc2)nc2c1ncn2C(C)C (stereo not shown) [Example 95] | 2300
33 | CCCCCCCC(C)n1cnc2c(NCCc3ccc(O)cc3)nc(-c3csc4ccccc34)nc21 (stereo not shown) [Example 21] | 130
34 | Cc1ccc(Cn2cnc3c(NCCc4ccc(O)cc4)nc(-c4csc5ccccc45)nc32)cc1 [Example 8] | 6030
35 | CCC(C)n1cnc2c(NCCc3c[nH]c4ccccc34)nc(-c3csc4ccccc34)nc21 (stereo not shown) [Example 23] | 19
36 | CC(C)n1cnc2c(N(C)CCc3ccc(O)cc3)nc(-c3cccnc3)nc21 [Example 99] | 7500
37 | Cc1cncc(-c2nc(NCCc3ccc(O)cc3)c3ncn(C(C)C)c3n2)c1 [Example 45] | 63
38 | CC(C)n1cnc2c(NCc3ccc4[nH]c(=O)[nH]c4c3)nc(-c3csc4ccccc34)nc21 [Example 90] | 3300
39 | CC(C)n1cnc2c(NCCc3ccc(NS(C)(=O)=O)cc3)nc(-c3cccnc3)nc21 [Example 92] | 7100
40 | CC(C)n1cnc2c(NCCc3ccc(O)cc3)nc(-c3ccccc3)nc21 [Example 16] | 460
41 | CC(C)n1cnc2c(NCCc3ccc(O)cc3)nc(-c3cncc(C#N)c3)nc21 [Example 37] | 24
42 | CC(C)n1cnc2c(NCCc3ccc(O)cc3)nc(-c3ccncc3)nc21 [Example 31] | 660
43 | Oc1ccc(CCNc2nc(-c3cccnc3)nc3c2ncn3[C@@H]2CCOC2)cc1 [Example 93R] | 520
44 | CC(C)n1c(-c2ccc(-c3ccccc3)cc2)nc2c(NCc3ccccc3)ncnc21 [Example 20] | 7800
45 | Cc1ccncc1-c1nc(NCCc2ccc(O)cc2)c2ncn(C(C)C)c2n1 [Example 35] | 340
46 | CC(C)n1cnc2c(NCCc3cccc(O)c3)nc(-c3csc4ccccc34)nc21 [Example 11] | 1450

Row | SMILES | EC50 [nM]
47 | COc1ccc2c(CCNc3nc(-c4cccnc4)nc4c3ncn4C(C)C)c[nH]c2c1 [Example 61] | 130
48 | CC(C)n1cnc2c(NCCc3ccc(O)cc3)nc(-c3cncc(S(C)(=O)=O)c3)nc21 [Example 46] | 650
49 | Fc1ccc(CCNc2nc(-c3csc4ccccc34)nc3c2ncn3-c2ccccc2)cc1 [Example 19] | 1100
50 | CC(C)n1cnc2c(NCCc3ccc(O)cc3)nc(-c3cnccn3)nc21 [Example 43] | 2400
51 | CC(C)n1cnc2c(NCCNC(N)=O)nc(-c3csc4ccccc34)nc21 [Example 89] | 1400
52 | CC(C)n1cnc2c(NCCc3ccc(O)cc3)nc(-c3cccs3)nc21 [Example 55] | 1300
53 | CC(C)n1cnc2c(NCCc3ccc(O)cc3)nc(-c3cccnc3F)nc21 [Example 118] | 450
54 | CC(C)n1cnc2c(NCCc3ccc(O)cc3)nc(N3CCCC3)nc21 [Example 38] | 1600
55 | CC(C)n1cnc2c(NCCc3ccc(O)cc3)nc(-c3ccccn3)nc21 [Example 44] | 1700
56 | CC(C)n1cnc2c(NCCc3ccsc3)nc(-c3csc4ccccc34)nc21 [Example 10] | 1380
57 | COc1cncc(-c2nc(NCCc3ccc(O)cc3)c3ncn(C(C)C)c3n2)c1 [Example 33] | 270
58 | CC(C)n1cnc2c(NCCCc3cn[nH]c3)nc(-c3csc4ccccc34)nc21 [Example 84] | 5400
59 | CC(C)n1cnc2c(NCCc3c[nH]c4ccccc34)nc(-c3csc4ccccc34)nc21 [Example 9, N-(2-(1H-indol-3-yl)ethyl)-2-(benzo[b]thiophen-3-yl)-9-isopropyl-9H-purin-6-amine] | 20
60 | CCC(C)n1cnc2c(NCCc3ccc(O)cc3)nc(-c3csc4ccccc34)nc21 (stereo not shown) [Example 2, 4-(2-(2-(benzo[b]thiophen-3-yl)-9-sec-butyl-9H-purin-6-ylamino)ethyl)phenol] | 30
61 | CC(C)n1cnc2c(NCCCc3cn[nH]c3)nc(-c3cccnc3)nc21 [Example 73] | 8200
